The numbers were not newly measured in patent publication US10076496B2, “Engineering of polymer-stabilized nanoparticles for drugs with Log P values below 6 by controlled antisolvent precipitation” (THE CHINESE UNIVERSITY OF HONG KONG, priority 2011, dated 2018), which cites them from elsewhere.

A word on the Log P: it is a log measure of how a compound divides between an organic and an aqueous phase. Regarding `CC(=O)O[C@H]1C(=O)[C@@]2(C)[C@H]([C@H](OC(=O)c3ccccc3)[C@]3(O)C[C@H](OC(=O)[C@H](O)[C@@H](NC(=O)c4ccccc4)c4ccccc4)C(C)=C1C3(C)C)[C@]1(OC(C)=O)CO[C@@H]1C[C@@H]2O` [paclitaxel], the “Log P” value was 7.38.
